From paper PMC8482771 (ACS Omega, 2021)
Like-named read-outs stand apart in the source and are kept apart here.

How the values were obtained:
Type in all cases: cell-based
[1] = biological target: T1, h-P2X7R (Homo sapiens, UniProt Q99572)
T1 sequence (Q99572 1-595): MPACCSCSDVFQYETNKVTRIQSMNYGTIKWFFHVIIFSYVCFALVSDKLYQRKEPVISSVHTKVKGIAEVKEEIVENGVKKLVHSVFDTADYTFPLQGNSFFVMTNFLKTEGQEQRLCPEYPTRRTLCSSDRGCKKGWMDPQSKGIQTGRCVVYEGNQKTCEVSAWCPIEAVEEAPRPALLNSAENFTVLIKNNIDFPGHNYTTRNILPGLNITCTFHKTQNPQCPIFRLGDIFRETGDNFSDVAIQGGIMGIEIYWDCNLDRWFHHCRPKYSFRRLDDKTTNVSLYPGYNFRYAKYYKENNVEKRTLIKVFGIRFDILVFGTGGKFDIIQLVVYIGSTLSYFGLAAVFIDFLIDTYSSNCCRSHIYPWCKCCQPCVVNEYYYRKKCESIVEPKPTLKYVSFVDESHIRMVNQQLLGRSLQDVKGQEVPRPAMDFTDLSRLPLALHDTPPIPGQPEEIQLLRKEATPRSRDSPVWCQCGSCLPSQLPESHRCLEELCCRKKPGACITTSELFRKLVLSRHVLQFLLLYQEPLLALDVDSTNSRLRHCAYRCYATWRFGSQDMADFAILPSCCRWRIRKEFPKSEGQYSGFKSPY

[2] = biological target: h-P2X5 receptor (Homo sapiens, UniProt Q93086); test: Ca2+ influx assay; conditions: for inhibition at 50 µM: 1321-N1, read-out: h-P2X5 % inhibition
[3] = biological target: T2, h-P2X2R (Homo sapiens, UniProt Q9UBL9); test: Ca2+ influx assay; conditions: for inhibition at 50 µM: 1321-N1, read-out: h-P2X2 % inhibition; for activity against h-P2X2 receptor (in words): SAR statement
T2 sequence (Q9UBL9 1-471): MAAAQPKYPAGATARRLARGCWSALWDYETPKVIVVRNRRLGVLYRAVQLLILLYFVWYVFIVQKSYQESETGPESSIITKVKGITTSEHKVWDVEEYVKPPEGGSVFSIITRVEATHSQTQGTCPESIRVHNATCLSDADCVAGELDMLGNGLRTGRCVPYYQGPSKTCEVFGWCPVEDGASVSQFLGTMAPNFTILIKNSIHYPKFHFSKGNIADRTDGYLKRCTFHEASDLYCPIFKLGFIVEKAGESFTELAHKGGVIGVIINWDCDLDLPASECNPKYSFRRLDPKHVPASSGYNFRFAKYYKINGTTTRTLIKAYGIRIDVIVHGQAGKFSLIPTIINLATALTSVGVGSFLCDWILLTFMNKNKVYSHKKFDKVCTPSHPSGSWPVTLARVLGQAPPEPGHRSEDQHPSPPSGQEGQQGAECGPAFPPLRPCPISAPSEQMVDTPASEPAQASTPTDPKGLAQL

[4] = biological target: T1, h-P2X7R; test: Ca2+ influx assay; conditions: for inhibition at 50 µM: 1321-N1, read-out: h-P2X7 % inhibition
[5] = biological target: T3, h-P2X4R (Homo sapiens, UniProt Q99571); test: Ca2+ influx assay; conditions: for inhibition at 50 µM: 1321-N1, read-out: h-P2X4 % inhibition
T3 sequence (Q99571 1-388): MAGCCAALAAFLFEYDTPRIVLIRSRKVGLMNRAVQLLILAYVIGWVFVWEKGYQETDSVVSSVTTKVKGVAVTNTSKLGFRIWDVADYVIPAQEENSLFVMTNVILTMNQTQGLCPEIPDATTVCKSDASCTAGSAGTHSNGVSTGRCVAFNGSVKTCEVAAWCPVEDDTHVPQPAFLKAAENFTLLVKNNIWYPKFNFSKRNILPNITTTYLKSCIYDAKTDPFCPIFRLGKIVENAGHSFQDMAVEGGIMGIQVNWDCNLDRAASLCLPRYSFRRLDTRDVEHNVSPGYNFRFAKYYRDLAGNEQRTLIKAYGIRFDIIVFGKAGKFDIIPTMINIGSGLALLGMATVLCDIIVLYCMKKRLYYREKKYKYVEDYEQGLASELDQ

[6] = Cytotoxicity assay; conditions: human, nontransfected 1321N1 astrocytoma cells
[7] = biological target: T2, h-P2X2R; test: Mode of inhibition: ATP dose-response curve without and with inhibitor, h-P2X2R; conditions: h-P2X2
[8] = biological target: T3, h-P2X4R; test: Mode of inhibition: ATP dose-response curve without and with inhibitor, h-P2X4R; conditions: h-P2X4R

h-P2X5 receptor, sequence (Q93086 whole entry): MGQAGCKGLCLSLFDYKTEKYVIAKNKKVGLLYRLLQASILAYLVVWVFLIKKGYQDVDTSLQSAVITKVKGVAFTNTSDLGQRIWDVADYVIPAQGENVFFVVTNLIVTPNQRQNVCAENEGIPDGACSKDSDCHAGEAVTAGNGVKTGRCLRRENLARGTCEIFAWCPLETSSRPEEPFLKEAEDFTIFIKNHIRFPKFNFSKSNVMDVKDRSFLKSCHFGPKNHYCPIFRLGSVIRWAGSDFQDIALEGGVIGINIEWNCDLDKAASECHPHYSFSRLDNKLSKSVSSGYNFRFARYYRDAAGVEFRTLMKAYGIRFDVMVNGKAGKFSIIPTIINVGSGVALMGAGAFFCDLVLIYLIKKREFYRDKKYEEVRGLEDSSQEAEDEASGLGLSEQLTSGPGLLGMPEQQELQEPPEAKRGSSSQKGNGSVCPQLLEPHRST

EC50 ([1]; read-out: EC50 of BzATP-induced response, BzATP without inhibitor) | IC50 [2] | inhibition at 50 µM [2] | IC50 [3] | inhibition at 50 µM [3] | IC50 [4] | IC50 [5] | inhibition at 50 µM [5] | activity against h-P2X2 receptor (in words) [3] | inhibition at 50 µM [4] | mechanism of receptor inhibition [7] | mechanism of receptor inhibition [1] | activity against h-P2X4 receptor (in words) ([5]; SAR statement) | mechanism of receptor inhibition [8] | IC50 ([2]; read-out: h-P2X5 IC50 ± SEM, Ca2+ influx, ATP at EC80, n = 3) | Compound | cytotoxicity at 24 h, 50 µM [6]
5.5 µM | – | – | – | – | – | – | – | – | – | – | – | – | – | – | 2′/3′-O-(4-benzoylbenzoyl)adenosine-5′-triphosphate [BzATP, reference compound] | –
– | > 50 µM | 20% | > 50 µM | 20% | 4.21 ± 0.01 µM | > 50 µM | 46% | – | – | – | – | – | – | – | CC(=NNC(=O)c1ccccc1NS(C)(=O)=O)c1ccccc1 [6a, N-(2-(2-(1-Phenylethylidene)hydrazinecarbonyl)phenyl)methanesulfonamide] | 14 ± 0.21%
– | > 50 µM | 16% | 1.91 ± 0.03 µM | – | – | > 50 µM | 40% | – | – | – | – | – | – | – | CC(=NNC(=O)c1ccccc1NS(C)(=O)=O)c1ccccc1F [6b, N-(2-(2-(1-(2-Fluorophenyl)ethylidene)hydrazinecarbonyl)phenyl)methanesulfonamide] | 11.4 ± 0.57%
– | > 50 µM | 0% | > 50 µM | 0% | 5.54 ± 0.05 µM | > 50 µM | 24% | loss of activity | – | – | – | – | – | – | CC(=NNC(=O)c1ccccc1NS(C)(=O)=O)c1cccc(Br)c1 [6c, N-(2-(2-(1-(3-Bromophenyl)ethylidene)hydrazinecarbonyl)phenyl)methanesulfonamide] | 15.1 ± 0.44%
– | > 50 µM | 42% | > 50 µM | 15% | > 50 µM | > 50 µM | 18% | loss of activity | 48% | – | – | – | – | – | CC(=NNC(=O)c1ccccc1NS(C)(=O)=O)c1ccc(Cl)cc1 [6d, N-(2-(2-(1-(4-Chlorophenyl)ethylidene)hydrazinecarbonyl)phenyl)methanesulfonamide] | 6.96 ± 0.8%
– | > 50 µM | 10% | 3.22 ± 0.05 µM | – | > 50 µM | > 50 µM | 0% | – | 34% | – | – | – | – | – | CC(=NNC(=O)c1ccccc1NS(C)(=O)=O)c1ccc(Br)cc1 [6e, N-(2-(2-(1-(4-Bromophenyl)ethylidene)hydrazinecarbonyl)phenyl)methanesulfonamide] | 16.8 ± 1.1%
– | > 50 µM | 21% | 3.52 ± 0.07 µM | – | 10.01 ± 0.07 µM | > 50 µM | 32% | – | – | – | – | – | – | – | CC(=NNC(=O)c1ccccc1NS(C)(=O)=O)c1ccc(I)cc1 [6f, N-(2-(2-(1-(4-Iodophenyl)ethylidene)hydrazinecarbonyl)phenyl)methanesulfonamide] | 8.31 ± 0.33%
– | > 50 µM | 26% | 3.48 ± 0.04 µM | – | 2.09 ± 0.13 µM | > 50 µM | 45% | – | – | – | – | – | – | – | COc1ccc(C(C)=NNC(=O)c2ccccc2NS(C)(=O)=O)cc1 [6g, N-(2-(2-(1-(4-Methoxyphenyl)ethylidene)hydrazinecarbonyl)phenyl)methanesulfonamide] | 5.29 ± 0.72%
– | > 50 µM | 10% | 0.32 ± 0.01 µM | – | 1.1 ± 0.21 µM | > 50 µM | 34% | – | – | negative allosteric modulator | negative allosteric modulator | – | – | – | CC(=NNC(=O)c1ccccc1NS(C)(=O)=O)c1ccc(N)cc1 [6h, N-(2-(2-(1-(4-Aminophenyl)ethylidene)hydrazinecarbonyl)phenyl)methanesulfonamide] | 18.5 ± 1.22%
– | > 50 µM | 29% | 1.57 ± 0.01 µM | – | > 50 µM | > 50 µM | 24% | – | 45% | – | – | inactive | – | – | CC(=NNC(=O)c1ccccc1NS(C)(=O)=O)c1cccs1 [7a, N-(2-(2-(1-(Thiophen-2-yl)ethylidene)hydrazinecarbonyl)phenyl)methanesulfonamide] | 11.6 ± 0.89%
– | > 50 µM | 12% | 1.8 ± 0.02 µM | – | > 50 µM | > 50 µM | 8% | – | 47% | – | – | – | – | – | CC(=NNC(=O)c1ccccc1NS(C)(=O)=O)c1sccc1C [7b, N-(2-(2-(1-(3-Methylthiophen-2-yl)ethylidene)hydrazinecarbonyl)phenyl)methanesulfonamide] | 10.7 ± 0.54%
– | > 50 µM | 31% | 1.59 ± 0.01 µM | – | 8.94 ± 0.01 µM | 3.89 ± 0.05 µM | – | – | – | – | – | – | – | – | CC(=NNC(=O)c1ccccc1NS(C)(=O)=O)c1cc(C)cs1 [7c, N-(2-(2-(1-(4-Methylthiophen-2-yl)ethylidene)hydrazinecarbonyl)phenyl)methanesulfonamide] | 5.98 ± 0.09%
– | > 50 µM | 46% | 2.03 ± 0.04 µM | – | 4.53 ± 0.11 µM | 3.21 ± 0.01 µM | – | – | – | – | – | – | – | – | CC(=NNC(=O)c1ccccc1NS(C)(=O)=O)c1ccc(C)s1 [7d, N-(2-(2-(1-(5-Methylthiophen-2-yl)ethylidene)hydrazinecarbonyl)phenyl)methanesulfonamide] | 1.57 ± 0.11%
– | > 50 µM | 27% | 2.17 ± 0.02 µM | – | 1.7 ± 0.09 µM | 1.61 ± 0.04 µM | – | – | – | – | – | – | negative allosteric modulator | – | CC(=NNC(=O)c1ccccc1NS(C)(=O)=O)c1sccc1Cl [7e, N-(2-(2-(1-(3-Chlorothiophen-2-yl)ethylidene)hydrazinecarbonyl)phenyl)methanesulfonamide] | 8.33 ± 0.8%
– | > 50 µM | 0% | > 50 µM | 37% | 1.16 ± 0.03 µM | 4.03 ± 0.07 µM | – | – | – | – | – | – | – | – | CC(=NNC(=O)c1ccccc1NS(C)(=O)=O)c1ccc(Cl)s1 [7f, N-(2-(2-(1-(5-Chlorothiophen-2-yl)ethylidene)hydrazinecarbonyl)phenyl)methanesulfonamide] | 11.6 ± 0.26%
– | > 50 µM | 19% | > 50 µM | 26% | 6.8 ± 0.21 µM | 2.44 ± 0.1 µM | – | – | – | – | – | – | – | – | CC(=NNC(=O)c1ccccc1NS(C)(=O)=O)c1ccc([N+](=O)[O-])s1 [7g, N-(2-(2-(1-(5-Nitrothiophen-2-yl)ethylidene)hydrazinecarbonyl)phenyl)methanesulfonamide] | 23.8 ± 2.15%
– | – | – | 0.89 ± 0.41 µM | – | 2.79 ± 0.22 µM | – | – | – | – | – | – | – | – | – | Nc1c(S(=O)(=O)O)cc(Nc2ccc(Nc3nc(Cl)nc(Nc4cccc(S(=O)(=O)O)c4)n3)c(S(=O)(=O)O)c2)c2c1C(=O)c1ccccc1C2=O [RB-2, Reactive Blue 2, reference compound] | –
– | – | – | – | – | – | – | – | – | – | – | – | – | – | 16.1 ± 0.5 µM | Cc1ccc(C(=O)Nc2ccc(S(=O)(=O)O)c3cc(S(=O)(=O)O)cc(S(=O)(=O)O)c23)cc1NC(=O)c1cccc(NC(=O)Nc2cccc(C(=O)Nc3cc(C(=O)Nc4ccc(S(=O)(=O)O)c5cc(S(=O)(=O)O)cc(S(=O)(=O)O)c45)ccc3C)c2)c1 [Suramin, reference compound] | –
